Measurements published in ChEMBL document CHEMBL1201862, “PubChem BioAssay data set” (2004).
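All cell lines were grown in 96-well plates and treated with compound for 48 hours. Here, GI50 denotes the concentration required for 50% inhibition of growth.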 Activity calls are given as the source filed them. Rule as the data show it: active = GI50 up to about 1.1 µM and inactive = higher.

Experiments:
Assay in all cases: NCI anticancer screen, dose series, 48 h
786-0 = system: 786-0
A549 = system: A549
ACHN = system: ACHN
CAKI-1 = system: CAKI-1
CCRF-CEM = system: CCRF-CEM
COLO 205 = system: COLO 205
DLD-1 = system: DLD-1
DMS-114 = system: DMS-114
DMS-273 = system: DMS-273
HCC 2998 = system: HCC 2998
HCT-116 = system: HCT-116
HCT-15 = system: HCT-15
HL-60 = system: HL-60
HOP-62 = system: HOP-62
HOP-92 = system: HOP-92
HT-29 = system: HT-29
IGROV-1 = system: IGROV-1
K562 = system: K562
KM-20L2 = system: KM-20L2
KM12 = system: KM12
LXFL 529 = system: LXFL 529
M14 = system: M14
M19-MEL = system: M19-MEL
MOLT-4 = system: MOLT-4
Malme-3M = system: Malme-3M
NCI-H226 = system: NCI-H226
NCI-H23 = system: NCI-H23
NCI-H460 = system: NCI-H460
NCI-H522 = system: NCI-H522
OVCAR-3 = system: OVCAR-3
OVCAR-4 = system: OVCAR-4
OVCAR-5 = system: OVCAR-5
OVCAR-8 = system: OVCAR-8
RPMI-8226 = system: RPMI-8226
SF-268 = system: SF-268
SF-295 = system: SF-295
SF-539 = system: SF-539
SK-MEL-28 = system: SK-MEL-28
SK-MEL-2 = system: SK-MEL-2
SK-MEL-5 = system: SK-MEL-5
SNB-19 = system: SNB-19
SNB-75 = system: SNB-75
SR = system: SR
SW-620 = system: SW-620
TK-10 = system: TK-10
U-251 = system: U-251
UACC-257 = system: UACC-257
UACC-62 = system: UACC-62
UO-31 = system: UO-31
XF498 = system: XF498
A498 = system: A498
EKVX = system: EKVX
HOP-18 = system: HOP-18
LOX IMVI = system: LOX IMVI
RXF 393 = system: RXF 393
SK-OV-3 = system: SK-OV-3
SN12C = system: SN12C

Question: Which results are given for `ONc1ncnc2[nH]cnc12`?
Answer: GI50 (786-0): > 100 µM (inactive); GI50 (A549): > 100 µM (inactive); GI50 (ACHN): > 100 µM (inactive); GI50 (CAKI-1): > 100 µM (inactive); GI50 (CCRF-CEM): > 100 µM (inactive); GI50 (COLO 205): > 100 µM (inactive); GI50 (DLD-1): > 100 µM (inactive); GI50 (DMS-114): > 100 µM (inactive); GI50 (DMS-273): > 100 µM (inactive); GI50 (HCC 2998): > 100 µM (inactive); GI50 (HCT-116): > 100 µM (inactive); GI50 (HCT-15): > 100 µM; GI50 (HL-60): 14.7 µM (inactive); GI50 (HOP-62): > 100 µM (inactive); GI50 (HOP-92): > 100 µM (inactive); GI50 (HT-29): > 100 µM (inactive); GI50 (IGROV-1): > 100 µM (inactive); GI50 (K562): 64.4 µM (inactive); GI50 (KM-20L2): > 100 µM (inactive); GI50 (KM12): > 100 µM (inactive); GI50 (LXFL 529): > 100 µM (inactive); GI50 (M14): > 100 µM (inactive); GI50 (M19-MEL): > 100 µM (inactive); GI50 (MOLT-4): > 100 µM (inactive); GI50 (Malme-3M): > 100 µM (inactive); GI50 (NCI-H226): > 100 µM (inactive); GI50 (NCI-H23): > 100 µM (inactive); GI50 (NCI-H460): > 100 µM (inactive); GI50 (NCI-H522): > 100 µM (inactive); GI50 (OVCAR-3): > 100 µM (inactive); GI50 (OVCAR-4): > 100 µM (inactive); GI50 (OVCAR-5): > 100 µM (inactive); GI50 (OVCAR-8): > 100 µM (inactive); GI50 (RPMI-8226): 58.2 µM (inactive); GI50 (SF-268): > 100 µM (inactive); GI50 (SF-295): > 100 µM (inactive); GI50 (SF-539): > 100 µM (inactive); GI50 (SK-MEL-28): > 100 µM (inactive); GI50 (SK-MEL-2): > 100 µM (inactive); GI50 (SK-MEL-5): > 100 µM (inactive); GI50 (SNB-19): > 100 µM (inactive); GI50 (SNB-75): > 100 µM (inactive); GI50 (SR): > 100 µM (inactive); GI50 (SW-620): > 100 µM (inactive); GI50 (TK-10): > 100 µM (inactive); GI50 (U-251): > 100 µM (inactive); GI50 (UACC-257): > 100 µM (inactive); GI50 (UACC-62): > 100 µM (inactive); GI50 (UO-31): > 100 µM (inactive); GI50 (XF498): > 100 µM (inactive)

Question: `O=C(CC1=Nc2nnc(CCCCCCCc3nnc4n3C(=O)C(CC(=O)c3ccccc3)=N4)n2C1=O)c1ccccc1` was tested. Which GI50 (786-0) did it give?
Answer: > 100 µM (inactive)

Question: What about the GI50 (A498) of the same compound?
Answer: > 100 µM (inactive)

Question: What about the GI50 (A549) of the same compound?
Answer: > 100 µM (inactive)

Question: And the GI50 (ACHN)?
Answer: > 100 µM (inactive)

Question: What about the GI50 (CAKI-1) of the same compound?
Answer: > 100 µM (inactive)

Question: What about the GI50 (CCRF-CEM) of the same compound?
Answer: > 100 µM (inactive)

Question: And the GI50 (COLO 205)?
Answer: > 100 µM (inactive)

Question: And the GI50 (DLD-1)?
Answer: > 100 µM (inactive)

Question: What about the GI50 (DMS-114) of the same compound?
Answer: > 100 µM (inactive)

Question: What about the GI50 (EKVX) of the same compound?
Answer: > 100 µM (inactive)

Question: And the GI50 (HCC 2998)?
Answer: > 100 µM (inactive)

Question: What about the GI50 (HCT-116) of the same compound?
Answer: > 100 µM (inactive)

Question: What about the GI50 (HCT-15) of the same compound?
Answer: > 100 µM

Question: What about the GI50 (HL-60) of the same compound?
Answer: > 100 µM (inactive)

Question: What about the GI50 (HOP-18) of the same compound?
Answer: > 100 µM (inactive)

Question: What about the GI50 (HOP-62) of the same compound?
Answer: > 100 µM (inactive)

Question: What about the GI50 (HOP-92) of the same compound?
Answer: > 100 µM (inactive)

Question: And the GI50 (HT-29)?
Answer: > 100 µM (inactive)

Question: And the GI50 (IGROV-1)?
Answer: > 100 µM (inactive)

Question: And the GI50 (K562)?
Answer: > 100 µM (inactive)

Question: What about the GI50 (KM-20L2) of the same compound?
Answer: > 100 µM (inactive)

Question: And the GI50 (KM12)?
Answer: > 100 µM (inactive)

Question: What about the GI50 (LOX IMVI) of the same compound?
Answer: > 100 µM (inactive)

Question: What about the GI50 (LXFL 529) of the same compound?
Answer: > 100 µM (inactive)

Question: What about the GI50 (M14) of the same compound?
Answer: > 100 µM (inactive)

Question: What about the GI50 (M19-MEL) of the same compound?
Answer: > 100 µM (inactive)

Question: What about the GI50 (MOLT-4) of the same compound?
Answer: > 100 µM (inactive)

Question: What about the GI50 (Malme-3M) of the same compound?
Answer: > 100 µM (inactive)

Question: And the GI50 (NCI-H226)?
Answer: > 100 µM (inactive)

Question: What about the GI50 (NCI-H23) of the same compound?
Answer: > 100 µM (inactive)

Question: And the GI50 (NCI-H460)?
Answer: > 100 µM (inactive)

Question: And the GI50 (NCI-H522)?
Answer: > 100 µM (inactive)

Question: What about the GI50 (OVCAR-3) of the same compound?
Answer: > 100 µM (inactive)

Question: And the GI50 (OVCAR-5)?
Answer: > 100 µM (inactive)

Question: And the GI50 (OVCAR-8)?
Answer: > 100 µM (inactive)

Question: And the GI50 (RPMI-8226)?
Answer: > 100 µM (inactive)

Question: And the GI50 (RXF 393)?
Answer: > 100 µM (inactive)

Question: What about the GI50 (SF-268) of the same compound?
Answer: > 100 µM (inactive)

Question: What about the GI50 (SF-295) of the same compound?
Answer: > 100 µM (inactive)

Question: And the GI50 (SF-539)?
Answer: > 100 µM (inactive)

Question: And the GI50 (SK-MEL-28)?
Answer: > 100 µM (inactive)

Question: What about the GI50 (SK-MEL-5) of the same compound?
Answer: > 100 µM (inactive)

Question: And the GI50 (SK-OV-3)?
Answer: > 100 µM (inactive)

Question: What about the GI50 (SN12C) of the same compound?
Answer: > 100 µM (inactive)

Question: And the GI50 (SNB-19)?
Answer: > 100 µM (inactive)

Question: And the GI50 (SNB-75)?
Answer: > 100 µM (inactive)

Question: What about the GI50 (SR) of the same compound?
Answer: > 100 µM (inactive)

Question: And the GI50 (SW-620)?
Answer: > 100 µM (inactive)

Question: What about the GI50 (TK-10) of the same compound?
Answer: > 100 µM (inactive)

Question: What about the GI50 (U-251) of the same compound?
Answer: > 100 µM (inactive)

Question: And the GI50 (UACC-257)?
Answer: > 100 µM (inactive)

Question: And the GI50 (UACC-62)?
Answer: > 100 µM (inactive)

Question: What about the GI50 (UO-31) of the same compound?
Answer: > 100 µM (inactive)

Question: And the GI50 (XF498)?
Answer: > 100 µM (inactive)
